The record followed here is patent US20140024716A1, “Composition Comprising S-Allyl-L-Cysteine as Active Ingredient for Preventing or Treating Gastrointestinal Disorders” (PHARMAKING CO., LTD., priority 2009, published 2014).

In data set [1] the test system is Helicobacter pylori-producing toxin VacA. Description: Serum anti-s1 m1 VacA IgG (ELISA) in Helicobacter pylori-infected mice. The format is in vivo, C57BL/6 mice. The note with it: SAC1 and SAC2 groups (200 and 400 mg/kg SAC). Here is the method: (§1) S-allyl-L-Cysteine (SAC) was purchased from TCI Chemical Co. (Tokyo, Japan). Helicobacter pylori was American Type Culture Collection (ATCC) 43504 (cagA+, vacA s1-ml type) and cultured in a Mueller Hinton-Agar broth at 37° C. for 48 hours, under 5% CO2 microaerophilic conditions with a concentration of 1×10^9 CFU/ml.
(§2) 8-week old male C57BL/6 mice were classified into 4 groups, i.e., a positive control group (to which Helicobacter pylori was administered; PC), a negative control group (to which saline was administered; NC), experimental group 1 (to which Helicobacter pylori and 200 mg/kg of SAC were administered; SAC1), and experimental group 2 (to which Helicobacter pylori and 400 mg/kg of SAC were administered; SAC2). Each group had 10 mice. White powdered SAC was diluted in tap water to concentrations of 20 mg/mL and 40 mg/mL and 10 μl/g (body weight) of the diluted SAC was orally administered to the mice of the SAC1 and SAC2 groups three times a week for 10 weeks. The mice were given free access to tap water for the entire test period. […]
(§3) Enzyme-linked immunosorbent assay (ELISA) was used in order to identify the effect of SAC on serum anti-Helicobacter pylori antibody-formation capability. […] 100 μl of 0.2 M sulfuric acid was added thereto to terminate the reaction and absorbance was measured at 450 nm.
Background: In an ELISA, binding on a coated surface is turned into a signal by an enzyme label.

A short description of data set [2]: General observation (death, weight) of rats in gastric lesion tests. The format is in vivo, Sprague-Dawley rats. Here is the method: 7 to 8-week old male specific pathogen free (SPF) HsdKoat:Sprague-Dawley®™ SD®™rats (weight of 7-week old males was in the range of 208.44 to 227.39 g, and weight of 8-week old maleswas in the range of 223.85 to 245.03 g, purchased from Koatech, Co. Ltd., Gyunggido, Korea) were quarantined and acclimated in the Animal Lab for 7 days. The rats were bred at a temperature of 23 3° C., at a relative humidity of 55 15%, with light for 12 hours (light turned on at 08:00 and light turned off at 20:00) while air was ventilated 10 to 20 times/hr in the Animal Experiment Lab of Gyeonggi Bio-Center. Other environments for breeding which might influence the test for the entire test period were not considered for use. The rats were given free access to a solid laboratory diet (Harlan Co. Ltd., USA. Teklad certified global 18% protein rodent diet, 2918C) that was supplied by Folas International. […] The rats were given free access to tap water that was sterilized using a UV sterilizer and a micro filter with water bottles. […]

The test system of data set [3] is H. pylori ATCC 43504. Description: Serum anti-H. pylori IgG (ELISA) in Helicobacter pylori-infected mice. Type of data set: in vivo, C57BL/6 mice. Here is the method: as §1, §2, §3
The subject of data set [4] is Helicobacter pylori. As to the kind of experiment: Histological change of stomach caused by Helicobacter pylori (H&E staining). Type of data set: in vivo, C57BL/6 mice. Here is the method: 8-week old male C57BL/6 mice were classified into 4 groups, i.e., a positive control group (to which Helicobacter pylori was administered; PC), a negative control group (to which saline was administered; NC), experimental group 1 (to which Helicobacter pylori and 200 mg/kg of SAC were administered; SAC1), and experimental group 2 (to which Helicobacter pylori and 400 mg/kg of SAC were administered; SAC2). Each group had 10 mice. White powdered SAC was diluted in tap water to concentrations of 20 mg/mL and 40 mg/mL and 10 μl/g (body weight) of the diluted SAC was orally administered to the mice of the SAC1 and SAC2 groups three times a week for 10 weeks. The mice were given free access to tap water for the entire test period. The Helicobacter pylori was collected with saline to a concentration of 1×10^9 CFU/mL, and 0.2 mL of the diluted Helicobacter pylori was orally administered to each mouse for 8 weeks from 2 weeks after SAC administration. The mice were fasted for 8 hours before the infection, and 0.15 mL of 0.2 M sodium bicarbonate (NaHCO3) was administered to each mouse 10 minutes before the administration of Helicobacter pylori in order to neutralize acidified stomach due to the fasting. The same amount of saline instead of the infectious substances was administered into the NC group. The mice of all groups were fed with a normal diet. After a 10-week test period, autopsies were performed on all mice, and samples of blood and internal organs were collected for tissue pathological analyses. […]
A stomach sample was fixed with 10% formalin and a paraffin block was formed. […] In addition, the number of eosinophils was checked from a region where the esophagus and stomach join and counted from three regions of the stomach, i.e., cardia, gastric pit, and gastric crypt of lamina propria. The number of mitotic figures was counted from two regions selected from the entire antrum from cardia to pylorus. Thus two samples were obtained from each animal and evaluated with a 400× magnification, and an average value of each group was calculated.

Entries after “also recorded” stand apart in the source; their conditions may differ.

As for `C=CCSC[C@H](N)C(=O)O` [SAC, S-allyl-L-cysteine], the “production of antibody against VacA (anti-s1 m1 VacA IgG)” value in data set [1] is “inhibited in the same manner as in the anti-H. pylori IgG”. Further, in data set [2] (100, 200, 400 mg/kg SAC oral single dose, rats), the “death and other changes” value is “No animals died and no other changes were observed”. Besides, the “significant weight change with respect to administration” value in data set [2] (100, 200, 400 mg/kg SAC oral, entire test period) is listed as “not observed”. In addition, the “antibody titer of anti-H. pylori IgG in serum, SAC2 versus SAC1 group” value in data set [3] (400 mg/kg versus 200 mg/kg SAC) was “significantly less than that in the SAC1 group”. Besides, the “antibody titer of anti-H. pylori IgG in serum versus PC group” value in data set [3] (SAC1 and SAC2 groups (200 and 400 mg/kg SAC oral, 10 weeks)) is listed as “significantly less; also recorded: less than that in the PC group”. Moreover, the “number of eosinophils in stomach versus PC group” value was “significantly reduced; also recorded: less than that of the PC group” in data set [4] (SAC1 and SAC2 groups (200 and 400 mg/kg SAC)); “significantly less than that of the PC group” in data set [4] (SAC1 group (200 mg/kg SAC), p<0.05). Besides, in data set [4] (SAC2 group (400 mg/kg SAC)), the “number of mitotic figures” value is given as “slightly reduced”.
